From patent US10065957B2, “Beta-lactamase inhibitors” (Novartis AG, priority 2016, dated 2018)
Where a name gives a salt, the structure may show the parent alone. Read-outs that look alike come from different tables or passages of the source.

Legend:
Type in all cases: cell-based
[1] = test system: K. pneumoniae NB29323 (CTX-M-15, OXA-48, VEB-1); conditions: aztreonam alone
Description: (§1) MICs were determined by the broth microdilution method in accordance with Clinical and Laboratories Institute (CLSI) guidelines. In brief, fresh overnight bacterial cultures were suspended in sterile saline, and adjusted to a 0.5 McFarland turbidity standard. Bacterial suspensions were then diluted in cation adjusted Mueller-Hinton Broth (MHB II; BBL) to yield a final inoculum of approximately 5×10^5 colony-forming units (CFU)/mL. A master plate of antibiotics was prepared at a concentration equivalent to hundred-fold the highest desired final concentration in 100% dimethyl sulfoxide (DMSO). The master antibiotic plate was then diluted by serial twofold dilution with a multichannel pipette. The resulting dilution series of compounds were diluted 1:10 with sterile water or a solution of beta-lactamase inhibitor prepared at a concentration equivalent to eleven-fold the desired final concentration in deionized water leading to a 10% DMSO final concentration. A volume of 10 μL of the drug dilution series was transferred to 96-well assay plates. Assay plates were inoculated with 90 μL of bacterial suspensions and incubated at 35° C. for 20 hrs. The assay plates were read using a microtiter plate reader (Molecular Devices) at 600 nm as well as by visual observation with a reading mirror. The lowest concentration of the compound that prevented visible growth was recorded as the MIC. Performance of the assay was monitored by testing aztreonam against laboratory quality control strains in accordance with guidelines of the CLSI.
(§2) Synergy or potentiation of beta-lactam antibiotics through inhibition of Q-lactamases was assessed against an isogenic panel of E. coli strains, each expressing a unique beta-lactamase, and against clinical strains.

E. coli (AmpC) = experiment: microbe, parasite or virus in culture; conditions: for MIC: Escherichia coli
Description: as §1, §2
The gene encoding AmpC was PCR amplified from the genome of strain P. aeruginosa PAO1 (NB52019) (GenBank ID U5R279) using primer pair E252 (gccCTCGAGggcgaggccccggcggatcgc) (SEQ ID NO: 17) and E253 (tgaGAATTCtcagcgcttcagcggcacct) (SEQ ID NO: 18).
The PCR products were then digested with XhoI and EcoRI and ligated into similarly digested plasmid pAH63-pstS(BlaP). Plasmid pAH63-pstS(BlaP) is a derivative of plasmid pAH63 (J Bacteriol: 183(21): 6384-6393) made by cloning the TEM-1 (bla) promoter and signal peptide encoding region from plasmid pBAD (J Bacteriol. 1995 July 177(14):4121-30) into plasmid pAH63. This fragment was PCR amplified from pBAD using primer pair E192 (ttcaCTGCAGtgaacgttgcgaagcaacggC) (SEQ ID NO:19) and E194 (TCGAggatcctcgagagcaaaaacaggaaggcaaaatgccg) (SEQ ID NO:20), digested with PstI and BamHI and inserted into similarly digested plasmid pAH63. Therefore, expression of beta-lactamases from pAH63-pstS(BlaP) based constructs is constitutive and the signal sequence is provided to direct these proteins to the periplasm. Plasmid pAH63 based vectors are used for insertion into the genome in single copy, however, to provide higher expression levels to allow more sensitive detection of the susceptibility of compounds to the expressed beta-lactamases, the expression inserts contained in these vectors were moved to the replicative multicopy vector pBAD-Kan (J Bacteriol. 1995 July 177(14):4121-30). To accomplish this, the inserts encompassing the beta-lactamase genes, with the associated TEM promoter and signal sequences, were PCR amplified from their corresponding vectors using primer E268 (ccgTCTAGAcggatggcctttttgcgtttc) (SEQ ID NO:21) and E202 (aatcGAATTCttactgaccattaacgcccaagc) (SEQ ID NO:22) for the KPC2 construct, E204 (aatcGAATTCttaacgctgccagtgctcaatc) (SEQ ID NO:23) for the SHV-12 construct and E203 (aatcGAATTCttacagaccgtcggtgacaatc) (SEQ ID NO:24) for the CTX-M-15 construct. These fragments were then digested with XbaI and EcoRI, and each was inserted into pBAD18-kan that had been digested with the same enzymes to generate multicopy vectors expressing KPC-2, SHV-12 and CTX-M-15, respectively. […]

E. coli (TEM-10) = experiment: microbe, parasite or virus in culture
Description: as §1, with “MIC.” for “MIC. Performance of the assay was monitored by testing aztreonam against laboratory quality control strains in accordance with guidelines of the CLSI.”
as §2
(§3) Construction of E. coli isogenic strains, NB27273-CDY0105 (OXA-18) and NB27273-CDY0048 (TEM-10). […] The gene encoding OXA-18 was then digested with XhoI and EcoRI and inserted into this vector, from which the gene for GIM-1 had been removed with XhoI and EcoRI.
From this template DNA, three fragments were generated by PCR using the following primer pairs;
This fragment was then digested with XbaI and EcoRI and inserted into pBAD-kan which was also cut with the same enzymes.
(§4) These final vectors for expression of OXA-18 and TEM-10 were transformed into BW25113 pspB to generate strains NB27273-CDY0105 (expressing OXA-18) and NB27273-CDY0048 (expressing TEM-10).

E. coli (OXA-18) = experiment: microbe, parasite or virus in culture; conditions: for MIC of piperacillin with beta-lactamase inhibitor: Pip + BLI at 2 μg/mL
Description: as §1, with “MIC.” for “MIC. Performance of the assay was monitored by testing aztreonam against laboratory quality control strains in accordance with guidelines of the CLSI.”
as §2, §3, §4

E. coli (KPC-2) = experiment: microbe, parasite or virus in culture; conditions: E. coli (KPC-2)
Description: as §1, with “MIC.” for “MIC. Performance of the assay was monitored by testing aztreonam against laboratory quality control strains in accordance with guidelines of the CLSI.”
as §2
(§5) Strain NB27273 (BW25113 pspB::Km^r) was obtained from the Keio transposon insertion collection. The strain has the pspB gene replaced by a kanamycin resistance marker (BW25113 pspB::Km^r). This strain was cured of the transposon in pspB via FLP recombinase using published methodology. The resulting strain, BW25113 pspB, was used as a host for multicopy vectors expressing key beta-lactamases. Multicopy plasmids directing constitutive expression of beta-lactamases were established as follows: Synthetic, codon optimized genes encoding E. coli KPC-2, SHV-12 and CTX-M-15 beta-lactamases were made by DNA2.0 (Palo Alto, Calif.). Each of the synthetic fragments were designed to contain NotI and NcoI restriction sites at their termini, allowing ligation into a NotI/NcoI digested pET28a(+) derivative for protein expression. […] The codon optimized nucleotide sequences and relevant primer recognition information is shown below:
(§6) The PCR products were then digested with XhoI and EcoRI and ligated into similarly digested plasmid pAH63-pstS(BlaP). […] Therefore, expression of beta-lactamases from pAH63-pstS(BlaP) based constructs is constitutive and the signal sequence is provided to direct these proteins to the periplasm. […] These fragments were then digested with XbaI and EcoRI, and each was inserted into pBAD18-kan that had been digested with the same enzymes to generate multicopy vectors expressing KPC-2, SHV-12 and CTX-M-15, respectively. These vectors were transformed into BW25113 pspB to generate strains NB27273-CDY0033 (expressing KPC-2), NB27273-CDY0030 (expressing SHV-12), NB27273-CDY0034 (expressing CTX-M-15) and NB27273-CDY0036 (expressing AmpC). The pBAD18-kan vector also contains the TEM promoter region and signal sequence, (but lacks any intact beta-lactamase genes) and was transformed into BW25113 pspB using standard protocols to generate the control strain NB27273-CDY0026.

E. coli (SHV-12) = experiment: microbe, parasite or virus in culture
Description: as §1, with “MIC.” for “MIC. Performance of the assay was monitored by testing aztreonam against laboratory quality control strains in accordance with guidelines of the CLSI.”
as §2, §5, §6

E. coli (CTX-M-15) = experiment: microbe, parasite or virus in culture
Description: as §1, with “MIC.” for “MIC. Performance of the assay was monitored by testing aztreonam against laboratory quality control strains in accordance with guidelines of the CLSI.”
as §2, §5, §6

E. coli ATCC 25922 = experiment: MIC by broth microdilution, BLI alone; conditions: Escherichia coli, ATCC25922, read-out: Minimal Inhibitory Concentrations (MIC) of selected BLIs
Description: as §1

P. aeruginosa ATCC 27853 = experiment: MIC by broth microdilution, BLI alone; conditions: Pseudomonas aeruginosa, ATCC27853, read-out: Minimal Inhibitory Concentrations (MIC) of selected BLIs
Description: as §1

K. pneumoniae ATCC 43816 = experiment: MIC by broth microdilution, BLI alone; conditions: Klebsiella pneumoniae, ATCC43816, read-out: Minimal Inhibitory Concentrations (MIC) of selected BLIs
Description: as §1

[2] = Escherichia coli, Mero alone, read-out: MIC of meropenem

C[C@H]1[C@H](NC(=O)/C(=N\OC(C)(C)C(=O)O)c2csc(N)n2)C(=O)N1S(=O)(=O)O [Aztreonam]
Activity of aztreonam [1]: >64 µg/mL | MIC (E. coli (AmpC); read-out: MIC of aztreonam, AZ alone): 4 µg/mL

Nc1nc(/C(=N/OC2(C(=O)O)CC2)C(=O)N[C@@H]2C(=O)N(S(=O)(=O)O)[C@@H]2CN2CCOC2=O)cs1 [Beta-Lactam 5]
Activity of Beta-Lactam 5 (E. coli (AmpC); Beta-Lactam 5 alone): 0.25 µg/mL | Activity of Beta-Lactam 5 (E. coli (TEM-10); Beta-Lactam 5 alone): 2 µg/mL | Activity of Beta-Lactam 5 (E. coli (OXA-18); Beta-Lactam 5 alone): 0.5 µg/mL | Activity of Beta-Lactam 5 (E. coli (KPC-2); Beta-Lactam 5 alone): 0.25 µg/mL | Activity of Beta-Lactam 5 (E. coli (SHV-12); Beta-Lactam 5 alone): 0.5 µg/mL | Activity of Beta-Lactam 5 (E. coli (CTX-M-15); Beta-Lactam 5 alone): 0.125 µg/mL

CN1C[C@@H]2C[C@@H]3CN(C(=O)N3OS(=O)(=O)[O-])[C@@H]2C1=O.[Na+] [Example 2, Sodium (4R,5aS,8aS)-7-methyl-2,8-dioxohexahydro-2H-1,4-methanopyrrolo[3,4-d][1,3]diazepin-3(4H)-yl sulfate]
MIC (E. coli ATCC 25922): > 64 µg/mL | MIC (P. aeruginosa ATCC 27853): > 64 µg/mL | MIC (K. pneumoniae ATCC 43816): > 64 µg/mL | MIC of piperacillin with beta-lactamase inhibitor (E. coli (OXA-18)): 4 µg/mL

O=C1[C@@H]2[C@@H](C[C@@H]3CN2C(=O)N3OS(=O)(=O)[O-])CN1C1CC1.[Na+] [Example 3, Sodium (4R,5aS,8aS)-7-cyclopropyl-2,8-dioxohexahydro-2H-1,4-methanopyrrolo[3,4-d][1,3]diazepin-3(4H)-yl sulfate]
MIC (E. coli ATCC 25922): > 64 µg/mL | MIC (P. aeruginosa ATCC 27853): > 64 µg/mL | MIC (K. pneumoniae ATCC 43816): > 64 µg/mL | MIC of piperacillin with beta-lactamase inhibitor (E. coli (OXA-18)): 4 µg/mL

O=C1[C@@H]2[C@@H](C[C@@H]3CN2C(=O)N3OS(=O)(=O)[O-])CN1CCO.[Na+] [Example 4, Sodium (4R,5aS,8aS)-7-(2-hydroxyethyl)-2,8-dioxohexahydro-2H-1,4-methanopyrrolo[3,4-d][1,3]diazepin-3(4H)-yl sulfate]
MIC (E. coli ATCC 25922): > 64 µg/mL | MIC (P. aeruginosa ATCC 27853): > 64 µg/mL | MIC (K. pneumoniae ATCC 43816): > 64 µg/mL

NCCN1C[C@@H]2C[C@@H]3CN(C(=O)N3OS(=O)(=O)O)[C@@H]2C1=O [Example 5, (4R,5aS,8aS)-7-(2-aminoethyl)-2,8-dioxohexahydro-2H-1,4-methanopyrrolo[3,4-d][1,3]diazepin-3(4H)-yl hydrogen sulfate]
MIC (E. coli ATCC 25922): > 64 µg/mL | MIC (P. aeruginosa ATCC 27853): > 64 µg/mL | MIC (K. pneumoniae ATCC 43816): > 64 µg/mL

CCCN1C[C@@H]2C[C@@H]3CN(C(=O)N3OS(=O)(=O)[O-])[C@@H]2C1=O.[Na+] [Example 6, Sodium (4R,5aS,8aS)-2,8-dioxo-7-propylhexahydro-2H-1,4-methanopyrrolo[3,4-d][1,3]diazepin-3(4H)-yl sulfate]
MIC (E. coli ATCC 25922): > 64 µg/mL | MIC (P. aeruginosa ATCC 27853): > 64 µg/mL | MIC (K. pneumoniae ATCC 43816): > 64 µg/mL

O=C1NCC[C@@H]2C[C@@H]3CN(C(=O)N3OS(=O)(=O)[O-])[C@H]12.[Na+] [Example 7, Sodium (4R,5aR,9aS)-2,9-dioxooctahydro-1,4-methanopyrido[3,4-d][1,3]diazepin-3(2H)-yl hydrogen sulfate]
MIC (E. coli ATCC 25922): > 64 µg/mL | MIC (P. aeruginosa ATCC 27853): > 64 µg/mL | MIC (K. pneumoniae ATCC 43816): > 64 µg/mL | MIC of piperacillin with beta-lactamase inhibitor (E. coli (OXA-18)): 8 µg/mL

COC[C@@H]1NC(=O)[C@@H]2[C@H]1C[C@@H]1CN2C(=O)N1OS(=O)(=O)[O-].[Na+] [Example 8, Sodium (4R,5aS,6R,8aS)-6-(methoxymethyl)-2,8-dioxohexahydro-2H-1,4-methanopyrrolo[3,4-d][1,3]diazepin-3(4H)-yl hydrogen sulfate]
MIC (E. coli ATCC 25922): > 64 µg/mL | MIC (P. aeruginosa ATCC 27853): > 64 µg/mL | MIC (K. pneumoniae ATCC 43816): > 64 µg/mL

C[C@@H](O)[C@H]1C(=O)N2C(C(=O)O)=C(S[C@@H]3CN[C@H](C(=O)N(C)C)C3)[C@H](C)[C@H]12 [Meropenem]
MIC (E. coli (AmpC); Mero alone, read-out: MIC of meropenem): ≤ 0.06 µg/mL | MIC (E. coli (TEM-10); [2]): ≤ 0.06 µg/mL | MIC (E. coli (OXA-18); [2]): ≤ 0.06 µg/mL | MIC (E. coli (KPC-2); [2]): 1 µg/mL | MIC (E. coli (SHV-12); [2]): ≤ 0.06 µg/mL | MIC (E. coli (CTX-M-15); [2]): ≤ 0.06 µg/mL

Ceftazidime
MIC of ceftazidime (E. coli (AmpC); ceftazidime alone): 4 µg/mL | MIC of ceftazidime (E. coli (TEM-10); ceftazidime alone): >64 µg/mL | MIC of ceftazidime (E. coli (OXA-18); ceftazidime alone): >64 µg/mL | MIC of ceftazidime (E. coli (SHV-12); ceftazidime alone): >64 µg/mL | MIC of ceftazidime (E. coli (CTX-M-15); ceftazidime alone): 16 µg/mL
